Source: ChEMBL document CHEMBL1145783, “Development of an orexin-2 receptor selective agonist, [Ala(11), D-Leu(15)]orexin-B” (Bioorg Med Chem Lett, 2003)
pEC50: −log10 of the molar value. Residues, ends and D or L forms follow the SMILES beside them. *: point of attachment. X1 = C[C@H](NC(=O)N1CCC[C@H]1C(=O)NCC(=O)N[C@@H](CO)C(=O)N[C@@H](CCCN=C(N)N)C(N)=O)C(=O)NC(=O)CN*

Target: T1, Orexin receptor type 2 (Homo sapiens, UniProt O43614)
T1 sequence (O43614 whole entry): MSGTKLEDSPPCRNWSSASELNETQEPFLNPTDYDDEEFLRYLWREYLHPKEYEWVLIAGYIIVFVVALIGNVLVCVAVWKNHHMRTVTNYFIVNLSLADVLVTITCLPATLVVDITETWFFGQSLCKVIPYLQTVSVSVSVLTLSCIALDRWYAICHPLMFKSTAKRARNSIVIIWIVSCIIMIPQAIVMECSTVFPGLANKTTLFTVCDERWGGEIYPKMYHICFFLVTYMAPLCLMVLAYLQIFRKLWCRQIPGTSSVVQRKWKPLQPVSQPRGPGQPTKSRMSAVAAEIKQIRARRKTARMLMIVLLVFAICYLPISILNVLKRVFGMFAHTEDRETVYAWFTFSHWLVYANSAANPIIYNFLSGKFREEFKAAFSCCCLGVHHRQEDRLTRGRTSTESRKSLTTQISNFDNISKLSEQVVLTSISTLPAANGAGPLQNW
Test: Agonist activity against human orexin 2 receptor; EC50; nM
Assay type: functional

Row | Compound | pEC50
1 | CC[C@H](C)[C@H](NC(=O)[C@H](CC(C)C)NC(=O)[C@@H](NC(=O)[C@@H](N)CCSC)[C@@H](C)O)C(=O)NCC(=O)N[C@@H](C)C(=O)N[C@@H](C)C(=O)N[C@@H](Cc1c[nH]cn1)C(=O)N[C@@H](CC(N)=O)C(=O)NCC(=O)N[C@@H](CO)C(=O)N[C@@H](C)C(=O)N[C@@H](CCC(N)=O)C(=O)N[C@@H](CC(C)C)C(=O)N[C@@H](CC(C)C)C(=O)N[C@@H](CCCN=C(N)N)C(=O)N[C@@H](CCC(N)=O)C(=O)N[C@@H](CC(C)C)C(=O)N[C@@H](CCCN=C(N)N)C(=O)NCC(=O)N[C@@H](CCC(N)=O)C(=O)N[C@@H](CC(C)C)C(=O)NCC(=O)NC(=O)[C@H](C)NC(=O)N1CCC[C@H]1C(=O)NCC(=O)N[C@@H](CO)C(=O)N[C@@H](CCCN=C(N)N)C(N)=O (H-MTLIGAAHNGSAQLLRQLRGQL-X1) | 9.54
2 | H-MTLIGAAHNGSAQALRQLRGQLGPPGSR-NH2 | 8.66
3 | CC[C@H](C)[C@H](NC(=O)[C@H](CC(C)C)NC(=O)[C@@H](NC(=O)[C@@H](N)CCSC)[C@@H](C)O)C(=O)NCC(=O)N[C@@H](C)C(=O)N[C@@H](C)C(=O)N[C@@H](Cc1c[nH]cn1)C(=O)N[C@@H](CC(N)=O)C(=O)NCC(=O)N[C@@H](CO)C(=O)N[C@@H](C)C(=O)N[C@H](CCC(N)=O)C(=O)N[C@@H](CC(C)C)C(=O)N[C@@H](CC(C)C)C(=O)N[C@@H](CCCN=C(N)N)C(=O)N[C@@H](CCC(N)=O)C(=O)N[C@@H](CC(C)C)C(=O)N[C@@H](CCCN=C(N)N)C(=O)NCC(=O)N[C@@H](CCC(N)=O)C(=O)N[C@@H](CC(C)C)C(=O)NCC(=O)N1CCC[C@H]1C(=O)N1CCC[C@H]1C(=O)NCC(=O)N[C@@H](CO)C(=O)N[C@@H](CCCN=C(N)N)C(N)=O | 9.39
4 | CC[C@H](C)[C@H](NC(=O)[C@H](CC(C)C)NC(=O)[C@@H](NC(=O)[C@@H](N)CCSC)[C@@H](C)O)C(=O)NCC(=O)N[C@@H](C)C(=O)N[C@@H](C)C(=O)N[C@@H](Cc1cnc[nH]1)C(=O)N[C@@H](CC(N)=O)C(=O)NCC(=O)N[C@@H](CO)C(=O)N[C@@H](C)C(=O)N[C@@H](CCC(N)=O)C(=O)N[C@@H](CC(C)C)C(=O)N[C@@H](CC(C)C)C(=O)N[C@@H](CCCN=C(N)N)C(=O)N[C@@H](CCC(N)=O)C(=O)N[C@@H](CC(C)C)C(=O)N[C@@H](CCCN=C(N)N)C(=O)N[C@H](C)C(=O)N[C@@H](CCC(N)=O)C(=O)N[C@@H](CC(C)C)C(=O)NCC(=O)N1CCC[C@H]1C(=O)N1CCC[C@H]1C(=O)NCC(=O)N[C@@H](CO)C(=O)N[C@@H](CCCN=C(N)N)C(N)=O | 9.89
5 | CC[C@H](C)[C@H](NC(=O)[C@H](CC(C)C)NC(=O)[C@@H](NC(=O)[C@@H](N)CCSC)[C@@H](C)O)C(=O)NCC(=O)N[C@@H](C)C(=O)N[C@@H](C)C(=O)N[C@@H](Cc1c[nH]cn1)C(=O)N[C@@H](CC(N)=O)C(=O)NCC(=O)N[C@H](CO)C(=O)N[C@@H](C)C(=O)N[C@@H](CCC(N)=O)C(=O)N[C@@H](CC(C)C)C(=O)N[C@@H](CC(C)C)C(=O)N[C@@H](CCCN=C(N)N)C(=O)N[C@@H](CCC(N)=O)C(=O)N[C@@H](CC(C)C)C(=O)N[C@@H](CCCN=C(N)N)C(=O)NCC(=O)N[C@@H](CCC(N)=O)C(=O)N[C@@H](CC(C)C)C(=O)NCC(=O)N1CCC[C@H]1C(=O)N1CCC[C@H]1C(=O)NCC(=O)N[C@@H](CO)C(=O)N[C@@H](CCCN=C(N)N)C(N)=O | 9.34
6 | CC[C@H](C)[C@H](NC(=O)[C@H](CC(C)C)NC(=O)[C@@H](NC(=O)[C@@H](N)CCSC)[C@@H](C)O)C(=O)NCC(=O)N[C@@H](C)C(=O)N[C@@H](C)C(=O)N[C@@H](Cc1c[nH]cn1)C(=O)N[C@@H](CC(N)=O)C(=O)NCC(=O)N[C@@H](CO)C(=O)N[C@@H](C)C(=O)N[C@@H](CCC(N)=O)C(=O)N[C@@H](CC(C)C)C(=O)N[C@@H](CC(C)C)C(=O)N[C@@H](CCCN=C(N)N)C(=O)N[C@@H](CCC(N)=O)C(=O)N[C@@H](CC(C)C)C(=O)N[C@@H](CCCN=C(N)N)C(=O)NCC(=O)N[C@@H](CCC(N)=O)C(=O)N[C@@H](CC(C)C)C(=O)NCC(=O)N1CCC[C@H]1C(=O)N1CCC[C@H]1C(=O)NCC(=O)N[C@@H](CO)C(=O)N[C@H](CCCN=C(N)N)C(N)=O | 9.72
7 | CC[C@H](C)[C@H](NC(=O)[C@H](CC(C)C)NC(=O)[C@@H](NC(=O)[C@@H](N)CCSC)[C@@H](C)O)C(=O)NCC(=O)N[C@@H](C)C(=O)N[C@@H](C)C(=O)N[C@@H](Cc1c[nH]cn1)C(=O)N[C@@H](CC(N)=O)C(=O)NCC(=O)N[C@@H](CO)C(=O)N[C@@H](C)C(=O)N[C@@H](CCC(N)=O)C(=O)N[C@@H](CC(C)C)C(=O)N[C@@H](CC(C)C)C(=O)N[C@@H](CCCN=C(N)N)C(=O)N[C@@H](CCC(N)=O)C(=O)N[C@@H](CC(C)C)C(=O)N[C@@H](CCCN=C(N)N)C(=O)NCC(=O)N[C@@H](CCC(N)=O)C(=O)N[C@@H](CC(C)C)C(=O)NCC(=O)N1CCC[C@@H]1C(=O)N1CCC[C@H]1C(=O)NCC(=O)N[C@@H](CO)C(=O)N[C@@H](CCCN=C(N)N)C(N)=O | 9.80
8 | CC[C@H](C)[C@H](NC(=O)[C@H](CC(C)C)NC(=O)[C@@H](NC(=O)[C@@H](N)CCSC)[C@@H](C)O)C(=O)NCC(=O)N[C@@H](C)C(=O)N[C@@H](C)C(=O)N[C@@H](Cc1c[nH]cn1)C(=O)N[C@@H](CC(N)=O)C(=O)NCC(=O)N[C@@H](CO)C(=O)N[C@@H](C)C(=O)N[C@@H](CCC(N)=O)C(=O)N[C@@H](CC(C)C)C(=O)N[C@@H](CC(C)C)C(=O)N[C@@H](CCCN=C(N)N)C(=O)N[C@@H](CCC(N)=O)C(=O)N[C@@H](CC(C)C)C(=O)N[C@@H](CCCN=C(N)N)C(=O)NCC(=O)N[C@@H](CCC(N)=O)C(=O)N[C@@H](CC(C)C)C(=O)NCC(=O)N1CCC[C@H]1C(=O)N1CCC[C@H]1C(=O)N[C@@H](C)C(=O)N[C@@H](CO)C(=O)N[C@@H](CCCN=C(N)N)C(N)=O | 9.74
9 | H-MTLIGAAHAGSAQLLRQLRGQLGPPGSR-NH2 | 8.64
10 | H-MTLIGAAHNGSAQLLAQLRGQLGPPGSR-NH2 | 9.89
11 | CC[C@H](C)[C@H](NC(=O)[C@H](CC(C)C)NC(=O)[C@@H](NC(=O)[C@@H](N)CCSC)[C@@H](C)O)C(=O)NCC(=O)N[C@@H](C)C(=O)N[C@@H](C)C(=O)N[C@@H](Cc1c[nH]cn1)C(=O)N[C@@H](CC(N)=O)C(=O)NCC(=O)N[C@@H](CO)C(=O)N[C@@H](C)C(=O)N[C@@H](CCC(N)=O)C(=O)N[C@H](CC(C)C)C(=O)N[C@@H](CC(C)C)C(=O)N[C@@H](CCCN=C(N)N)C(=O)N[C@@H](CCC(N)=O)C(=O)N[C@@H](CC(C)C)C(=O)N[C@@H](CCCN=C(N)N)C(=O)NCC(=O)N[C@@H](CCC(N)=O)C(=O)N[C@@H](CC(C)C)C(=O)NCC(=O)N1CCC[C@H]1C(=O)N1CCC[C@H]1C(=O)NCC(=O)N[C@@H](CO)C(=O)N[C@@H](CCCN=C(N)N)C(N)=O | 10.28
12 | H-MTAIGAAHNGSAQLLRQLRGQLGPPGSR-NH2 | 6.85
13 | H-MTLIGAAHNGSAQLLRALRGQLGPPGSR-NH2 | 9.64
14 | H-MTLIGAAHNGSAQLLRQLRGQLGPPGAR-NH2 | 9.66
15 | CC[C@H](C)[C@H](NC(=O)[C@H](CC(C)C)NC(=O)[C@@H](NC(=O)[C@@H](N)CCSC)[C@@H](C)O)C(=O)NCC(=O)N[C@@H](C)C(=O)N[C@@H](C)C(=O)N[C@H](Cc1cnc[nH]1)C(=O)N[C@@H](CC(N)=O)C(=O)NCC(=O)N[C@@H](CO)C(=O)N[C@@H](C)C(=O)N[C@@H](CCC(N)=O)C(=O)N[C@@H](CC(C)C)C(=O)N[C@@H](CC(C)C)C(=O)N[C@@H](CCCN=C(N)N)C(=O)N[C@@H](CCC(N)=O)C(=O)N[C@@H](CC(C)C)C(=O)N[C@@H](CCCN=C(N)N)C(=O)NCC(=O)N[C@@H](CCC(N)=O)C(=O)N[C@@H](CC(C)C)C(=O)NCC(=O)N1CCC[C@H]1C(=O)N1CCC[C@H]1C(=O)NCC(=O)N[C@@H](CO)C(=O)N[C@@H](CCCN=C(N)N)C(N)=O | 9.00
16 | H-MTLIGAAHNGSAQLLRQSRGQLGPPGSR-NH2 | 8.92
17 | CC[C@H](C)[C@H](NC(=O)[C@H](CC(C)C)NC(=O)[C@@H](NC(=O)[C@@H](N)CCSC)[C@@H](C)O)C(=O)NCC(=O)N[C@@H](C)C(=O)N[C@@H](C)C(=O)N[C@@H](Cc1cnc[nH]1)C(=O)N[C@H](CC(N)=O)C(=O)NCC(=O)N[C@@H](CO)C(=O)N[C@@H](C)C(=O)N[C@@H](CCC(N)=O)C(=O)N[C@@H](CC(C)C)C(=O)N[C@@H](CC(C)C)C(=O)N[C@@H](CCCN=C(N)N)C(=O)N[C@@H](CCC(N)=O)C(=O)N[C@@H](CC(C)C)C(=O)N[C@@H](CCCN=C(N)N)C(=O)NCC(=O)N[C@@H](CCC(N)=O)C(=O)N[C@@H](CC(C)C)C(=O)NCC(=O)N1CCC[C@H]1C(=O)N1CCC[C@H]1C(=O)NCC(=O)N[C@@H](CO)C(=O)N[C@@H](CCCN=C(N)N)C(N)=O | 9.59
18 | H-MTLIGAAHNGSAQLLRQLRGQLGPAGSR-NH2 | 9.64
19 | H-MTLIGAAHNGAAQLLRQLRGQLGPPGSR-NH2 | 8.80
20 | H-MTLIGAAANGSAQLLRQLRGQLGPPGSR-NH2 | 9.14
21 | CC[C@H](C)[C@H](NC(=O)[C@H](CC(C)C)NC(=O)[C@@H](NC(=O)[C@@H](N)CCSC)[C@@H](C)O)C(=O)NCC(=O)N[C@@H](C)C(=O)N[C@@H](C)C(=O)N[C@@H](Cc1cnc[nH]1)C(=O)N[C@@H](CC(N)=O)C(=O)NCC(=O)N[C@@H](CO)C(=O)N[C@@H](C)C(=O)N[C@@H](CCC(N)=O)C(=O)N[C@@H](CC(C)C)C(=O)N[C@@H](CC(C)C)C(=O)N[C@@H](CCCN=C(N)N)C(=O)N[C@@H](CCC(N)=O)C(=O)N[C@@H](CC(C)C)C(=O)N[C@@H](CCCN=C(N)N)C(=O)NCC(=O)N[C@@H](CCC(N)=O)C(=O)N[C@@H](CC(C)C)C(=O)NCC(=O)N1CCC[C@H]1C(=O)N1CCC[C@H]1C(=O)N[C@H](C)C(=O)N[C@@H](CO)C(=O)N[C@@H](CCCN=C(N)N)C(N)=O | 9.80
